Assay results from patent publication EP0025528A1, “1-(2-Acetylphenylthio)-3-alkylamino-2-propanols and their acid-addition salts, process for their preparation and medicines containing them” (A. Nattermann & Cie. GmbH, priority 1979, dated 1981).
Read-outs that look alike come from different tables or passages of the source.

Experiments:
Narkotisierte Katze = experiment: Anaesthetised cat: inhibition of isoprenaline-induced tachycardia (competitive ß-adrenergic antagonism in vivo); set-up: species or system Katzen; settings: Felis catus, read-out: ED50 Hemmung der Isoprenalin-induzierten Herzfrequenzsteigerung
Excerpt: Zum Nachweis des kompetitiven ß-adrenergischen Antagonismus in vivo wurden mischrassige Katzen beiderlei Geschlechts und in Chloralose-Pentobarbitalnarkose verwendet. […] Die Registrierung erfolgte über ein Stathamelement aus einem Beckman Dynograph Typ R. Aus der Blutdruckamplitude wurde mit Hilfe eines Kardiotachometers die Herzfrequenz abgenommen und auf einem weiteren Kanal des Dynographen aufgezeichnet. Die Applikation der Testlösungen erfolgte über einen Katheter in die linke Vena femoralis. Es wurde die inhibierende Wirkung ansteigender Testsubstanz-Dosen auf die durch i.v.Gabe von 0,5 gg Isoprenalin/kg Körpergewicht induzierte Tachykardie bzw. Hypotonie (Blutdrucksenkung) geprüft. Als ED50-Werte wurden in der Tabelle die Dosen der Referenz- bzw. erfindungsgemäßen Verbindung eingetragen, die die Isoprenalineffekte jeweils auf die Hälfte reduzierten.

Reserpinisierte Ratte = experiment: Intrinsic sympathomimetic activity (ISA) in reserpinised anaesthetised rat; assay type: in vivo, Wistar-Ratten; settings: intravenous; maximal heart-rate increase (mean of 6 animals) relative to 1,0 µg Isoprenalin/kg i.v.; reserpine 5 mg/kg i.p. 24 h before
Procedure: Die Tiere bekamen 24 Stunden vor Versuchsbeginn 5 mg Reserpin/kg intraperitoneal. Die Herzfrequenz wurde aus der Blutdruckamplitude (Polyäthylenkatheter mit aufgesetztem Stathamelement in der rechten Arteria femoralis) mit Hilfe eines Kardiotachometers abgenommen und auf einem Schreiber fortlaufend registriert. Die Applikation der Testlösungen erfolgte über einen Katheter in der linken Vena femoralis. Es wurden von jeder Testverbindung vier ansteigende Dosen getrennt jeweils an sechs verschiedenen Tieren geprüft.
Die maximale Steigerung der Herzfrequenz (Mittelwert aus 6 Tieren) durch die einzelnen Testverbindungen wurde als Maß für ihre agonistische Aktivität genommen und in Prozent der Frequenzsteigerung durch 1,0 µg Isoprenalin/kg Körpergewicht i.v. errechnet.

in vivo = settings: for LD50 at 168 h: mouse
Excerpt: Die akute Toxizität wurde an NMRI-Mäusen durch intravenöse bzw. orale Gabe von steigenden Dosen der erfindungsgemäßen Verbindung ermittelt.

[1] = intravenous, cat under chloralose-pentobarbital anaesthesia, isoprenaline 0,5 gg/kg i.v., dose halving the isoprenaline effect

| SMILES | ED50 (Narkotisierte Katze; [1]) [mg/kg] | ß-sympathomimetische Eigenaktivität (ISA) in % der sympathomimetischen Aktivität von Isoprenalin (Reserpinisierte Ratte) [%] | selectivity ratio (in vivo; iv) | LD50 at 168 h (in vivo; iv) [mg/kg] | ED50 (Narkotisierte Katze; iv) [mg/kg] | LD50 at 168 h (in vivo; po) [mg/kg] |
| --- | --- | --- | --- | --- | --- | --- |
| CC(=O)Nc1ccc(OCC(O)CNC(C)C)cc1 (centres unmarked) [Practolol] | 0.144 | 54 | 1030 | 148 | – | – |
| CC(C)NCC(O)COc1cccc2ccccc12 (centres unmarked) [Propranolol] | – | 0 | – | – | 0.017 | – |
| CC(=O)c1ccccc1SCC(O)CNC(C)(C)C (racemic) [Beispiel 1, 1-(2-Acetylphenylthio)-3-tert.-butyl-amino-2-propanol] | 0.044 | 33 | 2520 | 111 | – | 667 |
